Test results published in PMC9585585, “Discovery of Small-Molecule Allosteric Inhibitors of PfATC as Antimalarials” (Journal of the American Chemical Society, 2022).

Experiments:
PfATC = PfATC (Plasmodium falciparum, UniProt A0A5K1K910); assay: biochemical; settings: in vitro activity assay, PfATC 50 nM, 2 mM CP, 1 mM aspartate; read-out: PfATC IC50
Description: Following washing with Lysis buffer
Excess imidazole was removed and the His-tag was cleaved
400Then, the sample was loaded onto a 5 ml HiTrap SP HP column (GE Healthcare, USA) and
410PfATC activity assay. Enzymatic reactions were performed in a total volume of 150 µL in 50 mM
Small-molecule dose-response curves were
The reactions were initiated by adding CP and quenched after 10 min with
After plates were sealed with transparent sealing
(§1) 420tape to prevent evaporation and incubated overnight in the dark place at room temperature. After
Analyses were performed using
The enzymatic assay was performed as described herein above for
Briefly, the reaction was carried out at room
The reaction was initiated by
Then the plate was covered by sealing
(§2) 430tape and kept in dark place at room temperature and then heated to 95 °C for 15min in dark and kept

HsATC = target: T1, HsATC (Homo sapiens, UniProt P27708); assay: HsATC activity assay; format: biochemical; settings: in vitro activity assay, 10 mM L-aspartate, 5 mM carbamoyl phosphate; read-out: HsATC IC50
T1 construct: ATCase domain of CAD; made in house; host or cells: E. coli BL21 star
T1 sequence (P27708 1918-2225 limits assumed): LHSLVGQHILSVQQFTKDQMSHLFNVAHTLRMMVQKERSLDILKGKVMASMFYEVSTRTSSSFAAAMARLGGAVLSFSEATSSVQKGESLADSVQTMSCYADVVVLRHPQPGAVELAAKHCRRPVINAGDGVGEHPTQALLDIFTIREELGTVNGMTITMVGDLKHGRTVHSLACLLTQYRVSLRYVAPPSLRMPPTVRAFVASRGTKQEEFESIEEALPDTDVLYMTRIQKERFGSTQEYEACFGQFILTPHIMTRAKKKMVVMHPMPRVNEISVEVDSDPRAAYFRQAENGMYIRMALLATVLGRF
Description: 417100μL of stop mix (two volumes of Antipyrine (26.5 mM 2,3-Dimethyl-1-phenyl-3-pyrazolin-5-
418one in 50% (v/v) sulfuric acid) and one volume of 2,3-Butanedione monoxime (80 mM 2,3-
419Butanedione monoxime in 5% (v/v) acetic acid). After plates were sealed with transparent sealing
as §1
421incubation, the plates were heated at 95 °C for 15 min in dark place, and kept for 30 min before
422measuring at 466 nm suing a Synergy H1 Hybrid Reader (BioTek). Analyses were performed using
423Microsoft Excel and Graph Pad Prism.
424HsATC activity assay. The enzymatic assay was performed as described herein above for
425enzymatic assay of PfATC with minor modifications. Briefly, the reaction was carried out at room
426temperature in a total volume of 150 μl of 10 mM L-aspartate and 5 mM carbamoyl phosphate
427saturated substrate solution in 50 mM Tris-Acetate buffer pH 8.3. hsATC was pre-incubated with
428inhibitor and L-Asp for 10 min at room temperature on a shaker. The reaction was initiated by
429adding CP and stopped after 5 min with […] color mix. Then the plate was covered by sealing
as §2
431the plate in the dark for another 30 min before measuring the absorbance at 466 nm suing a Synergy
432H1 Hybrid Reader (BioTek). […]

P. falciparum 3D7 = assay: Growth-inhibition assay of P. falciparum (SYBR Green I); format: cell-based, Plasmodium falciparum; settings: P. falciparum 3D7, 96 h; read-out: EC50 against blood stage 3D7 cultures
Description: 488Cell culture and growth-inhibition assay of P. falciparum. P. falciparum 3D7 parasites
489(Wellcome Trust Dundee) were maintained in continuous culture at 37 °C and an atmosphere
490consisting of 90% N 2, 5% O2, and 5% CO2 as described previously 30 with modifications.31
491Parasites were maintained in 25 mM 4-(2-hydroxyethyl)-1-piperazineethanesulfonic acid (HEPES)
492and 11.9 mM sodium bicarbonate buffered RPMI 1640 medium supplemented with D-glucose
493(11 mM), hypoxanthine, AlbuMAX-I (0.5% w/v), and 10 µg/mL gentamicin. 0+ blood was
494provided by “Hospital Novo Atibaia” (Brazil) in agreement with the ethics committee at ICB-USP.
495Compounds were tested for their inhibitory effect against P. falciparum 3D7 conducting SYBR
496Green I (Invitrogen) drug assays as reported. 32, 33 Briefly, two-fold serial dilutions of compounds
497were prepared in 96-well plates starting from 100 and 20 µM in technical triplicate and incubated
498for 96 h under normal growth conditions using an initial parasitemia of 0.5% and a hematocrit of
4992% in a volume of 100 µL per well. Parasite proliferation was measured by quantifying DNA via
500SYBR Green I emitted fluorescence in the wells after addition of 100 µL lysis buffer supplemented
501with SYBR Green I (0.02% v/v) and incubation for 1 h at room temperature in the dark.
502Fluorescence was quantified using a CLARIOstar plate reader (BMG Labtech, Germany) at
503excitation and emission wavelength bands of 485 (± 9) and 530 (± 12) nm, respectively. Focal and
504gain adjustment was performed using the negative controls (highest expected fluorescence signal).
505Data was acquired via the CLARIOstar (V5.20) and MARS software, manually normalized, and
506plotted using the nonlinear regression curve fit implemented in GraphPad Prism as described below
507in more detail. Non-treated parasites, highest solvent concentration on parasites, and highest drug
508concentration in medium were used as controls for maximal growth, solvent control, and native
509drug fluorescence, respectively.
511Nonlinear regression fit and analysis of dose-response drug assays. Nonlinear regression as
512implemented in GraphPad Prism 8.4.3 (log(inhibitor) vs. response – Variable slope (four
513parameters)) was used to fit the measured data to interpolate the IC 50 value from the curve. No
514specific model was applied. Data was pre-processed by min-max-scaling according to the
517where y is the fluorescence signal in each well, y minimum the background fluorescence, and ymaximum
518the highest measured fluorescence signal in the untreated wells. Drug concentrations (in µM) were
519transformed to the log(10)of the values. Means of each independent experiment were plotted as
520individual values, and the SD of the mean from the means shown as error bars. The test for
521homoscedasticity was performed to confirm if no weighting of values was appropriate.

malarial parasite = tested on: malarial parasite; set-up: method as in PMID 32129597; settings: cited from earlier work

PfATC, sequence (A0A5K1K910 entry or part of it): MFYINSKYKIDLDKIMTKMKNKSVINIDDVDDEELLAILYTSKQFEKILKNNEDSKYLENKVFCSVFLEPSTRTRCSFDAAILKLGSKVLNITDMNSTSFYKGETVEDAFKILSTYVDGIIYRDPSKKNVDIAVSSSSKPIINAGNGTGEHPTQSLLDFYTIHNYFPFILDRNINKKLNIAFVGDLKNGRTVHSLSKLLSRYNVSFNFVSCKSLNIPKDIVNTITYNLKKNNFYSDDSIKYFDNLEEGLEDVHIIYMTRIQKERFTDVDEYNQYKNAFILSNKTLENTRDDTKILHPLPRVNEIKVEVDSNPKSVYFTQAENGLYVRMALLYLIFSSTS

Row | SMILES | IC50 (PfATC) [nM] | IC50 (HsATC) [nM] | EC50 (P. falciparum 3D7) [nM] | inhibitory effects in ex vivo experiments (malarial parasite)
1 | CC(C)(C)OC(=O)Nc1sc(-c2ccccc2)cc1C(=O)NCC(O)c1ccccc1 (stereo not drawn) [BDA-16] | 6080 | 870 | 1960 | –
2 | CC(C)(C)OC(=O)Nc1sc(-c2ccccc2)cc1C(=O)NCCc1ccc(Br)cc1 [BDA-22] | 473 | 573 | 2890 | –
3 | COc1ccccc1CCNC(=O)c1cc(-c2ccccc2)sc1NC(=O)OC(C)(C)C [BDA-18] | 1330 | 259 | 1850 | –
4 | CC(C)(C)OC(=O)Nc1sc(-c2ccccc2)cc1C(=O)NCCc1ccc(C(F)(F)F)cc1 [BDA-21] | 554 | 620 | 2420 | –
5 | CC(C)CCNc1sc(-c2ccccc2)cc1C(=O)NCCc1ccc(O)cc1 [BDA-19] | 4070 | 678 | 2330 | –
6 | O=C(O)C[C@H](NC(=O)CP(=O)(O)O)C(=O)O [PALA, N-(phosphonoacetyl)-L-aspartate] | – | – | – | no inhibitory effects
7 | CC(C)(C)OC(=O)Nc1sc(-c2ccccc2)cc1C(=O)N1CCN(c2ccc(O)cc2)CC1 [BDA-63] | 1090 | 250 | – | –
8 | COC(=O)c1c(NC(=O)OC(C)(C)C)sc2c1CCCC2 [BDA-67] | 1360 | 1010 | – | –
9 | CC(C)c1cc(C(=O)NCCc2ccc(O)cc2)c(N)s1 [BDA-61] | 1980 | 862 | – | –
10 | Nc1sc(Cc2ccccc2)cc1C(=O)NCCc1ccc(O)cc1 [BDA-58] | 4830 | 1230 | – | –
